Results: ChEMBL document CHEMBL3885861, “Open TG-GATES”

Organism: Rattus norvegicus
Assay: Open TG-GATES - Regimen: Daily Repeat
Assay type: toxicity, organism-based, Sprague-Dawley
Set-up: regimen Daily Repeat, gender Male, age 6 weeks
Conditions: in vivo, po, 30 mg/kg, route gavage, dose level Low; for APTT / Bas / Eos / Fbg / Hb / Ht / Lym / MCH / MCHC / MCV / Mono / Neu / PT / Plat / RBC / Ret / WBC: tissue Blood; for ALP / ALT / AST / BUN / CRE / DBIL / GLC / IP / K / Na / PL / RALB / TBIL / TC / TG / TP / gamma-GTP: tissue Plasma

Which results are given for `NS(=O)(=O)c1cc(C(=O)O)c(NCc2ccco2)cc1Cl` [FUROSEMIDE]?
TERMINAL_BW (72 h, time 3 day): 242 g; APTT (72 h, time 3 day): 16.1 s; Bas (72 h, time 3 day): 0.2%; Eos (72 h, time 3 day): 1%; Fbg (72 h, time 3 day): 282.4 mg/dL; Hb (72 h, time 3 day): 13.4 g/dL; Ht (72 h, time 3 day): 39.8%; Lym (72 h, time 3 day): 79.2%; MCH (72 h, time 3 day): 21.7 pg; MCHC (72 h, time 3 day): 33.6%; MCV (72 h, time 3 day): 64.6 fL; Mono (72 h, time 3 day): 2.4%; Neu (72 h, time 3 day): 16.8%; PT (72 h, time 3 day): 15.2 s; Plat (72 h, time 3 day): 115.5 x10_4/uL; RBC (72 h, time 3 day): 617 x10_4/ul; Ret (72 h, time 3 day): 5.5%; WBC (72 h, time 3 day): 93.7 x10_2/uL; ALP (72 h, time 3 day): 1458.2 IU/L; ALT (72 h, time 3 day): 37.6 IU/L; AST (72 h, time 3 day): 66.6 IU/L; BUN (72 h, time 3 day): 16.2 mg/dL; CRE (72 h, time 3 day): 0.2 mg/dL; DBIL (72 h, time 3 day): 0.012 mg/dL; GLC (72 h, time 3 day): 173.8 mg/dL; IP (72 h, time 3 day): 7.3 mg/dL; K (72 h, time 3 day): 3.8 meq/L; Na (72 h, time 3 day): 142.6 meq/L; PL (72 h, time 3 day): 157 mg/dL; RALB (72 h, time 3 day): 2.6 g/dL; TBIL (72 h, time 3 day): 0.048 mg/dL; TC (72 h, time 3 day): 79.2 mg/dL; TG (72 h, time 3 day): 94.6 mg/dL; TP (72 h, time 3 day): 5.7 g/dL; gamma-GTP (72 h, time 3 day): 0.6 IU/L; TERMINAL_BW ([…], time 7 day): 283.7 g; TERMINAL_BW ([…], time 14 day): 321.7 g; TERMINAL_BW ([…], time 28 day): 410.5 g; APTT ([…], time 7 day): 17.3 s; Bas ([…], time 7 day): 0.2%; Eos ([…], time 7 day): 1%; Fbg ([…], time 7 day): 291 mg/dL; Hb ([…], time 7 day): 13.4 g/dL; Ht ([…], time 7 day): 39.7%; Lym ([…], time 7 day): 78.2%; MCH ([…], time 7 day): 21.2 pg; MCHC ([…], time 7 day): 33.7%; MCV ([…], time 7 day): 62.8 fL; Mono ([…], time 7 day): 3%; Neu ([…], time 7 day): 16.4%; PT ([…], time 7 day): 15.5 s; Plat ([…], time 7 day): 114.5 x10_4/uL; RBC ([…], time 7 day): 631.8 x10_4/ul; Ret ([…], time 7 day): 5.9%; WBC ([…], time 7 day): 125.8 x10_2/uL; APTT ([…], time 14 day): 19.2 s; Bas ([…], time 14 day): 0.4%; Eos ([…], time 14 day): 0.8%; Fbg ([…], time 14 day): 296.8 mg/dL; Hb ([…], time 14 day): 14.4 g/dL; Ht ([…], time 14 day): 42.1%; Lym ([…], time 14 day): 81.4%; MCH ([…], time 14 day): 20.8 pg; MCHC ([…], time 14 day): 34.3%; MCV ([…], time 14 day): 60.7 fL; Mono ([…], time 14 day): 2.2%; Neu ([…], time 14 day): 14.2%; PT ([…], time 14 day): 15.8 s; Plat ([…], time 14 day): 109.5 x10_4/uL; RBC ([…], time 14 day): 693.6 x10_4/ul; Ret ([…], time 14 day): 3.9%; WBC ([…], time 14 day): 112.4 x10_2/uL; APTT ([…], time 28 day): 17.7 s; Bas ([…], time 28 day): 0.6%; Eos ([…], time 28 day): 1%; Fbg ([…], time 28 day): 270.4 mg/dL; Hb ([…], time 28 day): 14.8 g/dL; Ht ([…], time 28 day): 43.9%; Lym ([…], time 28 day): 81.2%; MCH ([…], time 28 day): 19.8 pg; MCHC ([…], time 28 day): 33.8%; MCV ([…], time 28 day): 58.5 fL; Mono ([…], time 28 day): 1.8%; Neu ([…], time 28 day): 15%; PT ([…], time 28 day): 15.8 s; Plat ([…], time 28 day): 95.5 x10_4/uL; RBC ([…], time 28 day): 750.2 x10_4/ul; Ret ([…], time 28 day): 2.5%; WBC ([…], time 28 day): 110.9 x10_2/uL; ALP ([…], time 7 day): 1491.8 IU/L; ALT ([…], time 7 day): 41.2 IU/L; AST ([…], time 7 day): 67.4 IU/L; BUN ([…], time 7 day): 16.2 mg/dL; CRE ([…], time 7 day): 0.2 mg/dL; DBIL ([…], time 7 day): 0.018 mg/dL; GLC ([…], time 7 day): 188.2 mg/dL; IP ([…], time 7 day): 7.5 mg/dL; K ([…], time 7 day): 4 meq/L; Na ([…], time 7 day): 142.6 meq/L; PL ([…], time 7 day): 170.2 mg/dL; RALB ([…], time 7 day): 2.6 g/dL; TBIL ([…], time 7 day): 0.05 mg/dL; TC ([…], time 7 day): 83.6 mg/dL; TG ([…], time 7 day): 130.2 mg/dL; TP ([…], time 7 day): 5.7 g/dL; gamma-GTP ([…], time 7 day): 0.8 IU/L; ALP ([…], time 14 day): 1426.6 IU/L; ALT ([…], time 14 day): 40.8 IU/L; AST ([…], time 14 day): 70 IU/L; BUN ([…], time 14 day): 16.6 mg/dL; CRE ([…], time 14 day): 0.2 mg/dL; DBIL ([…], time 14 day): 0.016 mg/dL; GLC ([…], time 14 day): 188.6 mg/dL; IP ([…], time 14 day): 6.7 mg/dL; K ([…], time 14 day): 3.9 meq/L; Na ([…], time 14 day): 143.6 meq/L; PL ([…], time 14 day): 152 mg/dL; RALB ([…], time 14 day): 2.6 g/dL; TBIL ([…], time 14 day): 0.046 mg/dL; TC ([…], time 14 day): 72.2 mg/dL; TG ([…], time 14 day): 126.6 mg/dL; TP ([…], time 14 day): 5.9 g/dL; gamma-GTP ([…], time 14 day): 0.4 IU/L; ALP ([…], time 28 day): 1044.8 IU/L; ALT ([…], time 28 day): 36 IU/L; AST ([…], time 28 day): 58.6 IU/L; BUN ([…], time 28 day): 15.8 mg/dL; CRE ([…], time 28 day): 0.2 mg/dL; DBIL ([…], time 28 day): 0.016 mg/dL; GLC ([…], time 28 day): 179.4 mg/dL; IP ([…], time 28 day): 5.8 mg/dL; K ([…], time 28 day): 3.9 meq/L; Na ([…], time 28 day): 144 meq/L; PL ([…], time 28 day): 164.4 mg/dL; RALB ([…], time 28 day): 2.7 g/dL; TBIL ([…], time 28 day): 0.044 mg/dL; TC ([…], time 28 day): 78.4 mg/dL; TG ([…], time 28 day): 155.8 mg/dL; TP ([…], time 28 day): 6.3 g/dL; gamma-GTP ([…], time 28 day): 1 IU/L
